# US8877816B2, “4-(or 5-) substituted catechol derivatives” (Decode Genetics EHF, priority 2007, dated 2014)
# Experiments:
# PDE4 h4D7 = PDE4 h4D7 (Homo sapiens, UniProt Q08499); experiment: In-vitro real-time enzyme-coupled spectrophotometric assay for PDE4 enzymes (h4D7); type: biochemical; settings: PDE4 isoform h4D7; enzyme-coupled NADH assay, absorbance at 340 nm
# Procedure: (§1) In-vitro assay for PDE4 enzymes. The in-vitro activity of PDE4 enzymes and the in-vitro potency of therapeutic agents described in the present invention was measured using a real-time, enzyme-coupled spectrophotometric assay. By using three different coupling enzymes, the product of the PDE4 reaction is coupled to the oxidation of the reduced form β-nicotinamide adenine dinucleotide (NADH), which dissipation can be monitored spectrophotmetrically at […].
# (§2) Assay description. Buffer A containing 50 mM Tris, pH 8.0, 16 mM MgCl2 and 80 mM KCl is prepared and stored at room temperature. Buffer B containing 50 mM Tris, pH 8.0 is prepared and stored at room temperature. Stock solutions of the following reagents are prepared in Buffer B and stored at −20° C.: Adenosine-5′-triphosphate (ATP), cyclic adenosine-5′-monophosphate (cAMP), phosphoenolpyruvate (PEP) and NADH. An assay mix is prepared by mixing Buffer A, […] (TCEP), ATP, PEP, NADH, myokinase (MK), pyruvate kinase (PK), lactate dehydroganese (LDH) and PDE4 to a final volume of 20 mL, which is enough for a single 96-well assay plate. Assay mix (180 μL) and test article (10 μL) in 1:1 DMSO/H2O mixture is pre-incubated at room temperature for 10 min. The enzymatic reaction is initiated by addition of cAMP (10 μL). Final concentration of all components in the assay (200 μL/well) are as follows: 10 mM MgCl2, 50 mM KCl, 5 mM TCEP, 2.5% DMSO, 0.4 mM NADH, 1 mM PEP, 0.04 mM ATP, 5 units MK, 1 unit PK, 1 unit LDH and appropriate amount of PDE4. Reaction progress curves are monitored in a plate reader capable of measuring light absorbance at 340 nm. A decrease in light absorbance at 340 nm is due to oxidation of NADH. Positive controls containing no test article and negative controls containing no test article and no cAMP are included on every assay plate. Reaction rates are determined from the slopes of the linear portions of the progress curves. All data are percent normalized with respect to controls and presented as percent inhibition.
# PDE4 h4B1 = PDE4 h4B1 (Homo sapiens, UniProt Q07343); experiment: In-vitro real-time enzyme-coupled spectrophotometric assay for PDE4 enzymes (h4B1); type: biochemical; settings: PDE4 isoform h4B1; enzyme-coupled NADH assay, absorbance at 340 nm
# Procedure: as §1, §2
# [1] = system: leukotriene E4 (LTE4) in human whole blood after Sephadex stimulation; experiment: Ex-vivo assay: Sephadex bead stimulated LTE4 production in human whole blood; type: cell-based; settings: 1.5 h; heparinized human whole blood, Sephadex G-15 beads, 37° C. 90 min, LTE4 by immunoassay; read-out: IC50 (inhibition of LTE4 production)
# Procedure: The activity of PDE4 inhibitors described in the present invention was also measured using in an ex-vivo assay measuring leukotriene E4 (LTE4) in human whole blood after Sephadex stimulation. […] For each sample, 356 μl of heparinized human whole blood (Vacutainer tube #6480) is added to wells of a 96 well plate. Then, 4 μl of a series of compound dilutions (in DMSO) are added in triplicates, suspension mixed and allowed to incubate at 37° C. for 15 min with gentle shaking. After that, blood samples are stimulated by adding 40 μL of Sephadex G-15 beads (Sigma-Aldrich, Sweden). The beads are predissolved in PBS (0.16 g/mL PBS). After mixing, the suspension is incubated at 37° C. for 90 min. Then, 8 μL of 15% EDTA/PBS is added to each sample, mixed and plate centrifuged for 5 min at 115×g at 21° C. and supernatants taken. In each plate, 10 positive controls and 10 negative controls are used, containing DMSO instead of compound solution. The positive controls are stimulated with Sephadex as described for the samples, and in the negative controls (unstimulated), Sephadex solution is replaced by PBS. LTE4 levels in the resulting plasma samples are determined using a commercial enzyme-linked immunoassay (Cayman Chemical Company, Ann Arbor, Mich.) according to the manufacturer's instructions. […]
# Chain of PDE4 h4B1 (Q07343 whole entry, canonical isoform): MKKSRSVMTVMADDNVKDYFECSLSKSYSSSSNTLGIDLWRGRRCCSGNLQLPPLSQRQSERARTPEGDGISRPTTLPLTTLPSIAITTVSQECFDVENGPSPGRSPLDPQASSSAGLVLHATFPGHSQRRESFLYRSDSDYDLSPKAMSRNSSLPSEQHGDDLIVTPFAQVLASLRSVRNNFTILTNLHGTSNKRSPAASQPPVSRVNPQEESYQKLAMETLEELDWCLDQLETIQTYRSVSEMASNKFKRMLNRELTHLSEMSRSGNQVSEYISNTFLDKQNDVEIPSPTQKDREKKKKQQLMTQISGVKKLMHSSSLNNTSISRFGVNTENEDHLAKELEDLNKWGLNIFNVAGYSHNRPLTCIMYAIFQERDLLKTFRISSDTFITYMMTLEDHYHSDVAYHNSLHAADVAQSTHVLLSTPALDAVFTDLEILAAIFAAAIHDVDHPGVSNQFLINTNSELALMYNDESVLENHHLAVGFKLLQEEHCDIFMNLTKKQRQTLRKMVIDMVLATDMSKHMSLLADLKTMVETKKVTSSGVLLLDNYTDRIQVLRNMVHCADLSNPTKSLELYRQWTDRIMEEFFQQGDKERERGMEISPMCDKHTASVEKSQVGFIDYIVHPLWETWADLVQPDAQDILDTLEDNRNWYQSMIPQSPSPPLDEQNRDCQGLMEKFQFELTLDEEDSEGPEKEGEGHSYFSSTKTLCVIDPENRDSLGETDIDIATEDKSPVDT
# Chain of PDE4 h4D7 (Q08499 1-748 isoform Q08499-11): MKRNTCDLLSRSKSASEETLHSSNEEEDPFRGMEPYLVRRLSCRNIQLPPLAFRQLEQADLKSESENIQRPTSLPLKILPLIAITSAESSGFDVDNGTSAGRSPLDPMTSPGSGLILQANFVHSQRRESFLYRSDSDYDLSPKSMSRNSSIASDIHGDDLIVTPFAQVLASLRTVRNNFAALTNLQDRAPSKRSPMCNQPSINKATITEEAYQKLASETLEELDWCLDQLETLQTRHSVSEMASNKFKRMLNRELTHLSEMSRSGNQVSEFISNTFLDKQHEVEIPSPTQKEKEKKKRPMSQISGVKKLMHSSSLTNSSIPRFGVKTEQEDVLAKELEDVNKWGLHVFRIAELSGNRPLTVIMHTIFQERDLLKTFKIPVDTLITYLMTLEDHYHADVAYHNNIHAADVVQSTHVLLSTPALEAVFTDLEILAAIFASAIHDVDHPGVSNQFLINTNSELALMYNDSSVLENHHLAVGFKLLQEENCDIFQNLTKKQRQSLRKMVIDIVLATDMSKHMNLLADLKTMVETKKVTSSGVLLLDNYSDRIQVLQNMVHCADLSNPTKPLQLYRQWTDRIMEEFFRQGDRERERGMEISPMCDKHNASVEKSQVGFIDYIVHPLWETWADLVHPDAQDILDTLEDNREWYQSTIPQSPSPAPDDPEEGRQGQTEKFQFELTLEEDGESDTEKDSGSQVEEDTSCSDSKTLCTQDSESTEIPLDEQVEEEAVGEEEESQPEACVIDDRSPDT
SMILES,IC50 (PDE4 h4D7),IC50 (PDE4 h4B1),IC50 [1]
"COc1ccc(Cc2ccc(F)cc2)c(F)c1Oc1cccc(N)c1 [Example P-02, 3-[2-Fluoro-3-(4-fluoro-benzyl)-6-methoxy-phenoxy]-phenylamine]",> 21 µM,> 21 µM,
"COc1ccc(Cc2ccc(NS(C)(=O)=O)cc2)cc1Oc1ccccc1 [Example P-04, N-[4-(4-Methoxy-3-phenoxy-benzyl)-phenyl]-methanesulfonamide]",> 21 µM,> 21 µM,
"COc1ccc(Cc2ccc(NC(N)=O)nc2)cc1Oc1cccc(Cl)c1 [Example P-06, {5-[3-(3-Chloro-phenoxy)-4-methoxy-benzyl]-pyridin-2-yl}-urea]",1 to 10 µM,1 to 10 µM,
"COc1ccc(Cc2ccc(N)cc2)cc1Oc1cccc(Cl)c1 [Example P-07, 4-[3-(3-Chloro-phenoxy)-4-methoxy-benzyl]-phenylamine]",1 to 10 µM,1 to 10 µM,
"COc1ccc(Cc2ccc(O)cc2)cc1Oc1cccc(Cl)c1 [Example P-08, 4-[3-(3-chloro-phenoxy)-4-methoxy-benzyl]-phenol]",1 to 10 µM,> 21 µM,
"COc1ccc(Cc2ccc(NS(C)(=O)=O)nc2)cc1Oc1cccc(Cl)c1 [Example P-09, N-{5-[3-(3-Chloro-phenoxy)-4-methoxy-benzyl]-pyridin-2-yl}-methanesulfonamide]",1 to 10 µM,> 21 µM,
"COc1ccc(Cc2ccc(NC(C)=O)cc2)c(F)c1Oc1ccc(F)cc1 [Example P-10, N-{4-[2-Fluoro-3-(4-fluoro-phenoxy)-4-methoxy-benzyl]-phenyl}-acetamide]",11 to 20 µM,> 21 µM,

# Further lines, results first:
IC50 (PDE4 h4D7),IC50 (PDE4 h4B1),IC50 [1],SMILES
< 1 µM,> 21 µM,< 1 µM,"COc1ccc(Cc2ccc(F)cc2)c(F)c1Oc1cccc([N+](=O)[O-])c1 [Example P-01, 2-Fluoro-1-(4-fluoro-benzyl)-4-methoxy-3-(3-nitro-phenoxy)-benzene]"
< 1 µM,1 to 10 µM,,"COc1ccc(Cc2ccc(F)cc2)c(F)c1Oc1cccc(Cl)c1 [Example P-03, 2-(3-Chloro-phenoxy)-3-fluoro-4-(4-fluoro-benzyl)-1-methoxy-benzene]"
1 to 10 µM,11 to 20 µM,,"COc1ccc(Cc2ccc(N)nc2)cc1Oc1cccc(Cl)c1 [Example P-05, 5-[3-(3-Chloro-phenoxy)-4-methoxy-benzyl]-pyridin-2-ylamine]"
< 1 µM,1 to 10 µM,,"COc1ccc(Cc2ccc(NC(N)=O)cc2)c(F)c1Oc1ccc(F)cc1 [Example P-11, {4-[2-Fluoro-3-(4-fluoro-phenoxy)-4-methoxy-benzyl]-phenyl}-urea]"
< 1 µM,> 21 µM,,COc1ccc(Cc2ccc(NC(N)=O)cc2)c(F)c1Oc1ccccn1 [Example P-12]
